Values quoted from earlier work as cited in PMC4552746, “Conformational Properties of Seven Toac-Labeled Angiotensin I Analogues Correlate with Their Muscle Contraction Activity and Their Ability to Act as ACE Substrates” (PLoS ONE, 2015).

System: thoracic rabbit aorta strips
Set-up: method as in earlier work
Settings: ref 48 (Cordopatis and Theodoropoulos)

In the case of [1-Aib]-angiotensin II [Aib^1-AngII], the “Potency, in words” value is listed as “displays high potency”.
